Entries after “also recorded” stand apart in the source; their conditions may differ. Blank lines part the entries; values can stand above or below the compound they belong to.
Assays:
[1] = tested on: palmitoyl-protein thioesterase 1 (PPT1); assay: PPT1 enzyme activity in MEF lysates; assay type: cell-based, mouse; conditions: wild type, DIV7
[2] = tested on: tripeptidyl peptidase 1 (TPP1); assay: TPP1 enzyme activity in MEF lysates; assay type: cell-based, mouse
Experimental: Treatment with AF38469 increases PPT1 and TPP1 enzyme activity in Batten disease mouse embryonic fibroblasts. Since AF38469 increases the expression of lysosomal genes including the PPT1 and TPP1 enzymes, we asked whether AF38469 increases the overall activity levels of these enzymes in cellulo. Wild type (WT) and mutant cells were treated with vehicle or AF38469 (40 nM). Cells were plated on day 0 and dosed with drug-containing media on DIV3 and DIV5. Cells were lysed, and protein quantification and enzyme activity assay were performed on DIV7. Data was analyzed with GraphPad Prism™. Two-way ANOVA. Mean±S.E.M. Tukey's multiple comparisons test. *p<0.05, **p<0.01, ***p<0.001, ****p<0.0001. Palmitoyl-protein thioesterase 1 (PPT1) is the lysosomal enzyme mutated in CLN1 disease and removes thioester-linked fatty acyl groups from modified cysteines of substrate proteins. Tripeptidyl peptidase 1 (TPP1) is the lysosomal enzyme mutated in CLN2 disease and has broad substrate specificity against various proteins degraded in the lysosome after cleavage.
Since LM11A-31 stimulates the nuclear translocation of transcription factors responsible for lysosome biogenesis, we asked whether LM11A-31 increases the overall activity levels of lysosomalenzymes in cellulo. […] Wild type (WT) and mutant cells were treated with vehicle or LM11A-31 (100 nM). Cells were plated on day 0 and dosed with drug-containing media on DIV3 and DIV5. Cells were lysed, and protein quantification and enzyme activity assay were performed on DIV7. Data was analyzed with GraphPad Prism™. Two-way ANOVA. Mean±S.E.M. Tukey's multiple comparisons test. *p<0.05, **p<0.01, ***p<0.001, ****p<0.0001. […] Palmitoyl-protein thioesterase 1 (PPT1) is the lysosomal enzyme mutated in CLN1 disease and removes thioester-linked fatty acyl groups from modified cysteines of substrate proteins. Tripeptidyl peptidase 1 (TPP1) is the lysosomal enzyme mutated in CLN2 disease and has broad substrate specificity against various proteins degraded in the lysosome after cleavage. Mutations in the CTSD gene, encoding cathepsin d, a lysosomal protease that is involved in the recycling and degradation, is a known cause of Cln10 disease.
Since semaglutide improves lysosomal health and function across diverse cell models of lysosomal storage disorder, we asked whether the function of the lysosomes was improved. […] Additionally, a combination of semaglutide and AF38469, a sortilin inhibitor, increased overall levels of activity for both enzymes in cell lysates. Wild type (WT) and mutant cells were treated with vehicle or semaglutide (100 nM) or AF38469 (40 nM) and semaglutide (100 nM). Cells were plated on in vitro day 0 and dosed with drug-containing media on DIV3 and DIV5. Cells were lysed, and protein quantification and enzyme activity assay were performed on DIV7. Data was analyzed with GraphPad Prism™. Two-way ANOVA. Mean±S.E.M. Tukey's multiple comparisons test. *p<0.05, **p<0.01, ***p<0.001, ****p<0.0001. […] (FIG. 20A). […] Levels of TPP1 enzyme activity in Cln2^R207X were not altered by treatment of semaglutide, as was expected given the lack of a functional TPP1 protein in this model (FIG. 20B). […] Levels of TPP1 enzyme activity in Cln2^R207X were not altered by treatment of AF38469 and semaglutide, as was expected given the lack of a functional TPP1 protein in this model. n=5 wells per treatment (FIG. 20D).

Compound: Cc1cccc(NC(=O)c2ccc(C(F)(F)F)cc2C(=O)O)n1 [AF38469, 2-((6-methylpyridin-2-yl)carbamoyl)-5-(trifluoromethyl)benzoic acid]
PPT1 enzyme activity ([1]; AF38469 40 nM, Cln2^R207X, Cln3^Δex7/8, Cln6^nclf, Cln11^−/− MEFs): increased the overall levels of activity; also recorded: significantly increased | TPP1 enzyme activity ([2]; AF38469 40 nM, Cln2^R207X MEFs): not altered | TPP1 enzyme activity ([2]; AF38469 40 nM, wild type, Cln3^Δex7/8, Cln6^nclf, Cln11^−/− MEFs, DIV7): increased the overall levels of activity; also recorded: significantly increased

PPT1 enzyme activity ([1]; LM11A-31 100 nM, Cln2^R207X and Cln3^Δex7/8 MEFs): significantly increased | TPP1 enzyme activity ([2]; LM11A-31 100 nM, wild type and Cln3^Δex7/8 MEFs, DIV7): significantly increased
Compound: CC[C@H](C)[C@H](N)C(=O)NCCN1CCOCC1 [LM11A-31, N-[2-(morpholin-4-yl)ethyl]-L-isoleucinamide]

PPT1 enzyme activity ([1]; semaglutide 100 nM, Cln2^R207X and Cln3^Δex7/8 MEFs): significantly increased | TPP1 enzyme activity ([2]; semaglutide 100 nM, Cln2^R207X MEFs): not altered | TPP1 enzyme activity ([2]; semaglutide 100 nM, wild type, Cln3^Δex7/8 MEFs, DIV7): significantly increased
Compound: semaglutide

Reference: patent US20240197700A1, “Methods and Compositions for Treating Lysosomal Storage Disorders” (Sanford Health, priority 2021, published 2024)
